These results are taken from ChEMBL document CHEMBL5727767, “1,2-substituted cyclopentanes as orexin receptor antagonists” (2020).

For orientation: pIC50 means the negative decadic logarithm of the IC50, by convention in mol/L. Higher therefore signals a small IC50.

pIC50: −log10 of the molar value. Where only a bound is given, the exact number is not on record here.

Assay [1] addresses T1, Orexin/Hypocretin receptor type 1 (Homo sapiens, UniProt O43613).
T1 sequence (O43613 whole entry): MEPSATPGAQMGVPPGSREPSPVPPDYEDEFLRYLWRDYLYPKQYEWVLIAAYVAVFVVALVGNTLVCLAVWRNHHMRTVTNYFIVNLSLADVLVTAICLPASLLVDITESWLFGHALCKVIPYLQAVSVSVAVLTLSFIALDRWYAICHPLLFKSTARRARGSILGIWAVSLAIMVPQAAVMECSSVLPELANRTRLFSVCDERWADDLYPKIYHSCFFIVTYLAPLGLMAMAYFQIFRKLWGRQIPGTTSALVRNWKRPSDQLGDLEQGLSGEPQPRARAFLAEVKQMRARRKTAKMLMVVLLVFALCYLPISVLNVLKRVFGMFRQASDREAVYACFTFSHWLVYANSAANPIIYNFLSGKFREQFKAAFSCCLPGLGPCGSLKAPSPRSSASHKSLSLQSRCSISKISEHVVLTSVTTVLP
Type of assay: cell-based.

The target in a further assay is T2, Orexin receptor type 2 (Homo sapiens, UniProt O43614).
T2 sequence (O43614 whole entry): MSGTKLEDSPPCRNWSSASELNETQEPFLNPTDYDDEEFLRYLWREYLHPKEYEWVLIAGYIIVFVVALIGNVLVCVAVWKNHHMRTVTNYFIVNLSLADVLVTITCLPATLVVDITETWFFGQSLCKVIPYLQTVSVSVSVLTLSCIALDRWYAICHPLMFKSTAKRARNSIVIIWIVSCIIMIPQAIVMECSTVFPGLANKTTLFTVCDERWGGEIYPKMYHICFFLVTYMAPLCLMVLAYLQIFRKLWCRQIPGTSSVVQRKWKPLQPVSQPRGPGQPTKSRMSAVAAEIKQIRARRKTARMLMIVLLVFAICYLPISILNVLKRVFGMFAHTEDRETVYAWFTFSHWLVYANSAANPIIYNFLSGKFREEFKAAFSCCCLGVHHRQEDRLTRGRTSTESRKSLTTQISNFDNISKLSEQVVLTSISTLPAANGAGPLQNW
It counts as cell-based.

Take `Cc1ccc(-n2nccn2)c(C(=O)N[C@@H]2CCC[C@@H]2Nc2ccc(Cl)cn2)c1`: the pIC50 in assay [1] is 6.57; against Orexin receptor type 2 it was less than 5.00.
